Some results are limits rather than exact numbers.

Sequence of RIPK1 kinase (Q13546 whole entry): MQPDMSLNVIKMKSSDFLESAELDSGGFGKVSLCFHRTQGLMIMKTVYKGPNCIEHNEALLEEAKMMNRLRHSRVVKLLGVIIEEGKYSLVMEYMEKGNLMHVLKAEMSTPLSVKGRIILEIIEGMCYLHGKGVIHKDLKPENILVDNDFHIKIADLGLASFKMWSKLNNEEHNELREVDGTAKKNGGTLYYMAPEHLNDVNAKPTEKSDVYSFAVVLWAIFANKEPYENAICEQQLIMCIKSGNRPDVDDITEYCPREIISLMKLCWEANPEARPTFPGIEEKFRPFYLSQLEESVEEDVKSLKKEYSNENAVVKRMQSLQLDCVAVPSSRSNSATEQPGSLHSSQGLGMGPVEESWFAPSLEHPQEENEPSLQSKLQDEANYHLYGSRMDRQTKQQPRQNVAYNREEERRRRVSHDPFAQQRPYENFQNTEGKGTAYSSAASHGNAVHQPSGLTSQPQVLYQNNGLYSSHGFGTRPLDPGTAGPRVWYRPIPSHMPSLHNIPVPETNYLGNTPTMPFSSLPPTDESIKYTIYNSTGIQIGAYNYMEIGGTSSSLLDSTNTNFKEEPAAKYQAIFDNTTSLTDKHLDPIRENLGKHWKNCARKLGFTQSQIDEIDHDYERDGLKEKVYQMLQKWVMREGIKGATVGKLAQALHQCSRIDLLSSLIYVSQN

The first test addresses RIPK1 kinase (Homo sapiens (Human), UniProt Q13546). As to the kind of experiment: RIPK1 kinase inhibitory assay (ADP-Glo).
Conditions: not given
In kind it is biochemical. As for the experimental part: Materials and Instruments: ADP-Glo kinase kit (purchased from Promega), RIPK1 GST-Th-Tag (purchased from Bps Bioscience), MBP substrate (purchased from Millipore), nunc 384-well plate, ATP fluorescence analyzer Paradigm detection platform (purchased from Beckman coulter)
The compounds were diluted in DMSO and configured into a solution with a final concentration of 10 mM; Dilute RIP1 kinase from 140 ng/μL to 20 ng/μL for use. Dilute 10 mM of ATP to 100 μM for later use; Dilute 5 mg/mL of MBP to 1 mg/mL for later use. Appropriate embodiments were added into the well of the 384-well plate, 10 μl […] ATP was evenly mixed with 1 μl 1 mg/mL MB P, the mixed solution was added to the well, and 2 μL […] RIP1 kinase was added to the hole, and then incubated at room temperature for 1 h. Subsequently, 5 μL ADP-Glo reagent was added to each well and incubated at room temperature for 40 min. Then, 10 μL ADP-Glo detection reagent was added to each well and incubated at room temperature for 30 min. Finally, the RLU value (relative light unit) of each well was measured by ATP fluorometer, and each sample was repeated twice. Inhibition rate=(RLU value of blank group−RLU value of drug administration group)/RLU value of blank group×100%.
For orientation: ADP-Glo first removes unused ATP, then detects ADP through luciferase.
In turn, `CN1C(=O)C(Cc2c[nH]c3ccccc23)NC1=S` (stereo not drawn) [Nec-1, reference compound] registered an IC50 of 1.14 µM.

Staying with this test, now noted: 10 μM compound; read-out: Inhibition rate of RIPK1 at 10 μM (%).
On to `Cn1cc(C(=O)N2CCC3(CC2)CCN(Cc2ccccc2)C3=O)c2ccccc21` [Compound 27, 2-benzyl-8-(1-methyl-1H-indole-3-carbonyl)-2,8-diazaspiro[4.5]decan-1-one], for which the inhibition at 10 µM turned out to be 46%.

Regarding `N#Cc1ccc(F)cc1CN1CCC2(CCN(C(=O)c3ccccc3)CC2)C1=O` [Compound 57, 2-((8-benzoyl-1-oxo-2,8-diazaspiro[4.5]decan-2-yl)methyl)-4-fluorobenzonitrile], the inhibition at 10 µM was 25%.

Take `CN1C(=O)N(Cc2ccccc2)C(=O)C12CCN(C(=O)c1ccccc1)CC2` [Compound 2, 8-benzoyl-3-benzyl-1-methyl-1,3,8-triazaspiro [4.5] decane-2,4-dione]: the inhibition at 10 µM turned out to be 8%. Same read-out and setting: to `Cn1ccc2cc(C(=O)N3CCC4(CC3)CCN(Cc3ccccc3)C4=O)ccc21` [Compound 28, 2-benzyl-8-(1-methyl-1H-indole-5-carbonyl)-2,8-diazaspiro[4.5]decan-1-one] belongs 3%; to `O=C(c1ccccc1)N1CCC2(CC1)CCN(Cc1cc(F)cc(F)c1)C2=O` [Compound 35, 8-benzoyl-2-(3,5-difluorobenzyl)-2,8-diazaspiro[4.5]decan-1-one], above 50%; to `O=C1N(Cc2ccccc2)CCC12CCN(Cc1ccccc1)CC2` [Compound 19, 2,8-dibenzyl-2,8-diazaspiro[4.5]decan-1-one], 16%. On to `O=C(c1cnco1)N1CCC2(CC1)CCN(Cc1ccccc1F)C2=O` [Compound 30, 2-(2-fluorobenzyl)-8-(oxazole-5-carbonyl)-2,8-diazaspiro[4.5]decan-1-one], for which the inhibition at 10 µM was above 50%. For `O=C(c1ccc2ccoc2c1)N1CCC2(CC1)CCN(Cc1cc(F)ccc1F)C2=O` [Compound 76, 8-(benzofuran-6-carbonyl)-2-(2,5-difluorobenzyl)-2,8-diazaspiro [4.5]decan-1-one], the inhibition at 10 µM is above 50%. Same read-out and setting: to `N#Cc1ccccc1CN1CCC2(CCN(C(=O)c3ccccc3)CC2)C1=O` [Compound 54, 2-((8-benzoyl-1-oxo-2,8-diazaspiro[4.5]decan-2-yl)methyl) benzonitrile] belongs 6%. The same measure, in the same setting: to `O=C(c1ccccc1)N1CCC2(CC1)CCN(Cc1cc(Cl)ccc1F)C2=O` [Compound 47, 8-benzoyl-2-(5-chloro-2-fluorobenzyl)-2,8-diazaspiro[4.5]decan-1-one] belongs above 50%; to `O=C(c1ccccc1)N1CCC2(CCCN(Cc3ccccc3)C2=O)CC1` [Compound 74, 9-benzoyl-2-benzyl-2,9-diazaspiro[5.5]undecan-1-one], above 50%.

Consider `COc1cccc(C(=O)N2CCC3(CC2)CCN(Cc2cc(F)ccc2F)C3=O)c1` [Compound 77, 2-(2,5-difluorobenzyl)-8-(3-methoxybenzoyl)-2,8-diazaspiro[4.5]decan-1-one], for which the inhibition at 10 µM is above 50%.

On to `O=C(c1ccccc1)N1CCC2(CC1)CCN(Cc1ccc(F)cc1)C2=O` [Compound 33, 8-benzoyl-2-(4-fluorobenzyl)-2,8-diazaspiro[4.5]decan-1-one], for which the inhibition at 10 µM was above 50%. `O=C1N(Cc2cc(F)ccc2F)CCC12CCN(c1ncccn1)CC2` [Compound 51, 2-(2,5-difluorobenzyl)-8-(pyrimidin-2-yl)-2,8-diazaspiro[4.5]decan-1-one]: the inhibition at 10 µM turned out to be 41%. Same read-out and setting: to `O=C(c1ccccc1)N1CCC2(CC1)N=CN(Cc1cc(F)ccc1F)C2=O` [Compound 61, 8-benzoyl-3-(2,5-difluorobenzyl)-1,3,8-triazaspiro[4.5]dec-1-en-4-one] belongs above 50%; to `O=C(c1ccccc1)N1CCC2(C=NN(Cc3cc(F)ccc3F)C2=O)CC1` [Compound 66, 8-benzoyl-2-(2,5-difluorobenzyl)-2,3,8-triazaspiro[4.5]dec-3-en-1-one], above 50%; to `O=C(c1ccccc1)N1CCC2(CC1)N=CN(Cc1ccccc1F)C2=O` [Compound 60, 8-benzoyl-3-(2-fluorobenzyl)-1,3,8-triazaspiro[4.5]dec-1-en-4-one], above 50%.

On to `O=C(c1ccccc1)N1CCC2(CC1)CCN(CC1CCCCC1)C2=O` [Compound 11, 8-benzoyl-2-(cyclohexylmethyl)-2,8-diazaspiro[4.5]decan-1-one], for which the inhibition at 10 µM is above 50%. The same measure, in the same setting: to `O=C(c1ccccc1)N1CCC2(CC1)CCN(Cc1cccc(F)c1)C2=O` [Compound 32, 8-benzoyl-2-(3-fluorobenzyl)-2,8-diazaspiro[4.5]decan-1-one] belongs above 50%; to `CN1C(=O)N(Cc2cccc(Cl)c2)C(=O)C12CCN(C(=O)c1ccccc1)CC2` [Compound 3, 8-benzoyl-3-(3-chlorobenzyl)-1-methyl-1,3,8-triazaspiro[4.5]decane-2,4-dione], 11%; to `O=C(c1ccccc1)N1CCC2(CC1)CCN(Cc1cccnc1)C2=O` [Compound 13, 8-benzoyl-2-(pyridin-3-ylmethyl)-2,8-diazaspiro[4.5]decan-1-one], above 50%. Same read-out and setting: to `O=C(c1ccncc1)N1CCC2(CC1)CCN(Cc1ccccc1)C2=O` [Compound 16, 2-benzyl-8-isonicotinoyl-2,8-diazaspiro[4.5]decan-1-one] belongs above 50%; to `O=C(c1ccccc1)N1CCC2(CC1)CNN(Cc1ccccc1)C2=O` [Compound 71, 8-benzoyl-2-benzyl-2,3,8-triazaspiro[4.5]decan-1-one], 31%; to `O=C(c1ccccc1)N1CCC2(CC1)CCN(Cc1ccc(C(F)(F)F)cc1)C2=O` [Compound 15, 8-benzoyl-2-(4-(trifluoromethyl)benzyl)-2,8-diazaspiro[4.5]decan-1-one], above 50%. Still for that read-out and setting: to `O=C(c1cnco1)N1CCC2(CC1)CCN(Cc1ccccc1)C2=O` [Compound 18, 2-benzyl-8-(oxazole-5-carbonyl)-2,8-diazaspiro[4.5]decan-1-one] belongs above 50%. In the case of `O=C(c1ccccc1)N1CCC2(C=NN(Cc3cccc(F)c3)C2=O)CC1` [Compound 64, 8-benzoyl-2-(3-fluorobenzyl)-2,3,8-triazaspiro[4.5]dec-3-en-1-one], the inhibition at 10 µM was above 50%. Same read-out and setting: the result for `O=C(c1ccccc1)N1CCC2(CC1)CCN(Cc1c(F)cccc1Cl)C2=O` [Compound 45, 8-benzoyl-2-(2-chloro-6-fluorobenzyl)-2,8-diazaspiro[4.5]decan-1-one] reads 43%; that for `O=C(c1cccnc1)N1CCC2(CC1)CCN(Cc1ccccc1)C2=O` [Compound 17, 2-benzyl-8-nicotinoyl-2,8-diazaspiro[4.5]decan-1-one], 45%; that for `N#Cc1ccnc(N2CCC3(CCN(Cc4cc(F)ccc4F)C3=O)CC2)n1` [Compound 52, 2-(2-(2,5-difluorobenzyl)-1-oxo-2,8-diazaspiro[4.5]decan-8-yl) pyrimidine-4-carbonitrile], above 50%.

As for `O=C(c1ccccc1)N1CCC2(CC1)CCN(Cc1ccccn1)C2=O` [Compound 14, 8-benzoyl-2-(pyridin-2-ylmethyl)-2,8-diazaspiro[4.5]decan-1-one], the inhibition at 10 µM was above 50%. In the case of `CN1C(=O)N(Cc2ccccn2)C(=O)C12CCN(C(=O)c1ccccc1)CC2` [Compound 6, 8-benzoyl-1-methyl-3-(pyridin-2-ylmethyl)-1,3,8-triazaspiro [4.5]decane-2,4-dione], the inhibition at 10 µM came out at 4%.

Consider `O=C1N(Cc2ccccc2)CCC12CCN(c1ncccn1)CC2` [Compound 36, 2-benzyl-8-(pyrimidin-2-yl)-2,8-diazaspiro[4.5]decan-1-one], for which the inhibition at 10 µM is above 50%. Same read-out and setting: to `O=C(c1ccc2[nH]ccc2c1)N1CCC2(CC1)CCN(Cc1ccccc1)C2=O` [Compound 24, 2-benzyl-8-(1H-indole-5-carbonyl)-2,8-diazaspiro[4.5]decan-1-one] belongs above 50%; to `O=C(c1ccccc1)N1CCC2(CC1)CCN(Cc1ccc(Cl)cc1F)C2=O` [Compound 39, 8-benzoyl-2-(4-chloro-2-fluorobenzyl)-2,8-diazaspiro[4.5]decan-1-one], above 50%. Still for that read-out and setting: the result for `N#Cc1cc(N2CCC3(CCN(Cc4cc(F)ccc4F)C3=O)CC2)ncn1` [Compound 58, 6-(2-(2,5-difluorobenzyl)-1-oxo-2,8-diazaspiro[4.5]decan-8-yl)pyrimidine-4-carbonitrile] reads above 50%; that for `Cn1cnc2ccc(C(=O)N3CCC4(CC3)CCN(Cc3ccccc3)C4=O)cc21` [Compound 26, 2-benzyl-8-(1-methyl-1H-benzo[d]imidazole-6-carbonyl)-2,8-diazaspiro[4.5]decan-1-one], 14%. As for `O=C(c1ccccc1)N1CCC2(CC1)CNN(Cc1ccccc1F)C2=O` [Compound 72, 8-benzoyl-2-(2-fluorobenzyl)-2,3,8-triazaspiro[4.5]decan-1-one], the inhibition at 10 µM stood at 40%. Still for that read-out and setting: to `O=C(c1ccccc1)N1CCC2(C=NN(Cc3cccc(C(F)(F)F)c3)C2=O)CC1` [Compound 68, 8-benzoyl-2-(3-(trifluoromethyl)benzyl)-2,3,8-triazaspiro[4.5]dec-3-en-1-one] belongs 13%.

What is called IC50 is the concentration that gives 50% inhibition. As a reminder, the inhibition is how much of the control response was suppressed.

Source of the values: patent publication US20250129073A1, “INHIBITOR OF RECEPTOR-INTERACTING PROTEIN KINASE 1, AND PREPARATION METHOD AND USE THEREFOR” (CHINA PHARMACEUTICAL UNIVERSITY, priority 2021, published 2025).
